Experimental findings from patent US10004732B2 (Novartis AG, priority 2014, dated 2018) are described below.

In data set [1] the target is T1, PI 3-kinase alpha (Homo sapiens, UniProt P42336). The data set can be described thus: Kinase Glo Luminescent Kinase Assay (Kglo), assay A. In kind it is biochemical. Conditions: read-out: Assay A PI3Kα IC50.
Target sequence in this assay (P42336 whole entry): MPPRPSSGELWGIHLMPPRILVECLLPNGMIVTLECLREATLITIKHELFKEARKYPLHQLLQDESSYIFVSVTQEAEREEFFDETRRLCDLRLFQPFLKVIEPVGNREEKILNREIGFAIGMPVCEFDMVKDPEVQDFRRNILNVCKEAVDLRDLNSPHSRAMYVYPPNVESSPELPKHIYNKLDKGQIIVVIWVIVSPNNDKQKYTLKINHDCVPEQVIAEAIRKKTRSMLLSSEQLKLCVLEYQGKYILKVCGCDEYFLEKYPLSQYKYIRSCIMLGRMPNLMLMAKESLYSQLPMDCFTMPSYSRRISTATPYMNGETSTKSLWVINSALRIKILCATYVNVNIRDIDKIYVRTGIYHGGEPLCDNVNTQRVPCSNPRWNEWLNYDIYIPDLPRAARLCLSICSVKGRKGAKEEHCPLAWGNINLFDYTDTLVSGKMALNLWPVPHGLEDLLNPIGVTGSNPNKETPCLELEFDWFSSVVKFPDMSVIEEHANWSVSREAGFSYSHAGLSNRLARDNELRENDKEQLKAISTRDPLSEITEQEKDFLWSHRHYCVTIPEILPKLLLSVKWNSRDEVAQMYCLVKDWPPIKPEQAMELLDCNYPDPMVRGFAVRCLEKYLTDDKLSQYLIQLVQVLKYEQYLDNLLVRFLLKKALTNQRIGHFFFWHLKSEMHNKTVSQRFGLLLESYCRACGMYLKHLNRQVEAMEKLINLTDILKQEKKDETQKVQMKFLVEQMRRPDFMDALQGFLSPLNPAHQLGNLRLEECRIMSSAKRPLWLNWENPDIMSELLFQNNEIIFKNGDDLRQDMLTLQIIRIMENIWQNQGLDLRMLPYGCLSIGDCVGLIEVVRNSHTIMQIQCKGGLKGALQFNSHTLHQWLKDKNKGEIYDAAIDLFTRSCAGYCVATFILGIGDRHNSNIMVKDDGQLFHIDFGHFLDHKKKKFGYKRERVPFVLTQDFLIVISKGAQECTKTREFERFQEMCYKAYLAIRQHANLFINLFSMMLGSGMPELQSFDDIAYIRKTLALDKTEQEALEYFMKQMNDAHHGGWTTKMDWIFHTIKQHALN
In data set [2] the target is T2, PI 3-kinase beta (Homo sapiens, UniProt P42338). The data set can be described thus: Kinase Glo Luminescent Kinase Assay (Kglo), assay B. In kind it is biochemical. Conditions: read-out: Assay B PI3Kβ IC50.
A further data set concerns the target Vps34 (Homo sapiens, UniProt Q8NEB9). The data set can be described thus: Kinase Glo Luminescent Kinase Assay (Kglo), assay C. To be noted: read-out: Assay C VPS34 IC50. Type of data set: biochemical.
The target of a further data set is PI 4-kinase beta (Homo sapiens, UniProt Q9UBF8). Description: Kinase Glo Luminescent Kinase Assay (Kglo), assay D. Conditions: read-out: Assay D PI4Kβ IC50. Type of data set: biochemical.
PI 4-kinase beta, sequence (Q9UBF8 whole entry): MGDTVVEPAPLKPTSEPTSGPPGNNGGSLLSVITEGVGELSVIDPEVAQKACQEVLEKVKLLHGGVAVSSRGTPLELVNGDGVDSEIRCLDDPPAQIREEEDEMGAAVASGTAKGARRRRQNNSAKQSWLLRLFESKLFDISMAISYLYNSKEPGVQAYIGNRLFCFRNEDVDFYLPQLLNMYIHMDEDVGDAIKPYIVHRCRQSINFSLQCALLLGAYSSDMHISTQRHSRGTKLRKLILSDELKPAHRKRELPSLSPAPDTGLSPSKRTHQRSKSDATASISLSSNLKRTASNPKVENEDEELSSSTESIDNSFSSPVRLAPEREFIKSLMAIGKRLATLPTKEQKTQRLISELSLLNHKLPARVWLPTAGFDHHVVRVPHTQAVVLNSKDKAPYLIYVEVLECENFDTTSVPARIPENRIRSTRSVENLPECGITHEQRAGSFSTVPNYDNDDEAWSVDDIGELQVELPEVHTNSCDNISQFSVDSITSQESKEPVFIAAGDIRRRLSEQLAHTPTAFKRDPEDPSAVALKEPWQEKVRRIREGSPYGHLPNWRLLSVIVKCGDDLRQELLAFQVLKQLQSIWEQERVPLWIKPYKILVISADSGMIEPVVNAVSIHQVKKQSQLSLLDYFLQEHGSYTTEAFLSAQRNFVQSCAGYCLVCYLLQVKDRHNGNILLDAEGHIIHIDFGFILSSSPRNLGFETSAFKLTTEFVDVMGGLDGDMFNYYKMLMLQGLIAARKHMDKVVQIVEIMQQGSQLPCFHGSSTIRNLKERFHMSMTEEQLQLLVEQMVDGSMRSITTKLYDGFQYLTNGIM
The next data set deals with PI 3-kinase gamma (Homo sapiens, UniProt P48736). The data set can be described thus: TR-FRET Adapta assay, assay E. In kind it is biochemical. To be noted: read-out: Assay E PI3Kγ IC50.
For data set [3], the target named is T1, PI 3-kinase alpha. The data set can be described thus: Cellular assay H1, p-Akt (S473) in Rat-1 cells, Surefire format. Type of data set: cell-based. Conditions: non-asterisked data: version H1 (Surefire format), Rat-1 cells; read-out: Assay H PI3Kα IC50.
Target sequence in this assay (P42336 whole entry): as the sequence (P42336 whole entry) above
Target sequence in this assay (Q63787 whole entry partner): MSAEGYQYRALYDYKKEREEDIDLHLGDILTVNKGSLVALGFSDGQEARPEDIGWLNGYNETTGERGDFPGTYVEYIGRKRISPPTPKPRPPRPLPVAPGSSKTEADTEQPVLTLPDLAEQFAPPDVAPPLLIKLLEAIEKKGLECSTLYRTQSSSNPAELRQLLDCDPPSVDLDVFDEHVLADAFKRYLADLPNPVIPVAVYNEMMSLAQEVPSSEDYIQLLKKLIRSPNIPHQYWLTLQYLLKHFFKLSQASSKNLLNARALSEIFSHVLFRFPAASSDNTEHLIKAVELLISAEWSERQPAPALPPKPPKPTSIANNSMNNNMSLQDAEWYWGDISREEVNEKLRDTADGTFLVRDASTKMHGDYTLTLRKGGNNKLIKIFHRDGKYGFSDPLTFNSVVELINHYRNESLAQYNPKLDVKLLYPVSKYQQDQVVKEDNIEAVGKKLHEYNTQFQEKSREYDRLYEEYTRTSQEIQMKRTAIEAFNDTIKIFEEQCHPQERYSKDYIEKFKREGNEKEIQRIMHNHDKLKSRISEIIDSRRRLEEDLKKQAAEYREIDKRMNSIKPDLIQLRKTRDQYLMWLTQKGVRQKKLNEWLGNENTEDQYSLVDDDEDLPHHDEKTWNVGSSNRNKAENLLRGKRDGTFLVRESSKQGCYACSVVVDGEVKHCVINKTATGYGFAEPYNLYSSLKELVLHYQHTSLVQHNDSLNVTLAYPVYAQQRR
Excerpt: Cellular Assays for PI 3-Kinase Alpha (H1), Beta (I1) and Delta (J1): Surefire Format
AlphaScreen (Amplified Luminescent Proximity Homogeneous Assay, ALPHA, Perkin Elmer) is a non-radioactive bead-based proximity assay technology to study biomolecular interactions in a homogenous microtiter plate format. The brand name SureFire denotes AlphaScreen assays that are adapted to quantify the phosphorylation of endogenous cellular proteins in cell lysates, by using matched antibody pairs, which consist of an anti-phospho-kinase and an anti-kinase antibody. The assay allows characterization of kinase signaling in cells as well as measurement of kinase inhibitor effects.
Using Rat-1 cells stably expressing myr-HA-tagged versions of the human PI3Kdelta, PI3Kalpha, or PI3Kbeta p110 catalytic subunit isoforms, the assay was developed as a two-plate protocol in a 384-well format.
For compound testing, the cells were seeded at a density of 4000 (Rat-1_PI3Kdelta), 7500 (Rat-1_PI3Kalpha), or 6200 (Rat-1_PI3Kbeta) cells in 20 μl complete growth medium into cell culture treated 384-well plates and were grown at 37° C./5% CO2/90% humidity for 24 h. Shortly before compound transfer, the complete medium was removed, 30 μl assay buffer (DMEM high glucose, 1×MEM NEAA, 10 mM HEPES, 2 mM L-glutamine, 0.1% (w/v) BSA) was added and 10 μl of the compound predilutions were transferred to the cells.
Data set [4] deals with T2, PI 3-kinase beta. Description: Cellular assay I1, p-Akt (S473) in Rat-1 cells, Surefire format. To be noted: non-asterisked data: version I1 (Surefire format), Rat-1 cells; read-out: Assay I PI3Kβ IC50. Type of data set: cell-based.
Target sequence in this assay (P42338 whole entry): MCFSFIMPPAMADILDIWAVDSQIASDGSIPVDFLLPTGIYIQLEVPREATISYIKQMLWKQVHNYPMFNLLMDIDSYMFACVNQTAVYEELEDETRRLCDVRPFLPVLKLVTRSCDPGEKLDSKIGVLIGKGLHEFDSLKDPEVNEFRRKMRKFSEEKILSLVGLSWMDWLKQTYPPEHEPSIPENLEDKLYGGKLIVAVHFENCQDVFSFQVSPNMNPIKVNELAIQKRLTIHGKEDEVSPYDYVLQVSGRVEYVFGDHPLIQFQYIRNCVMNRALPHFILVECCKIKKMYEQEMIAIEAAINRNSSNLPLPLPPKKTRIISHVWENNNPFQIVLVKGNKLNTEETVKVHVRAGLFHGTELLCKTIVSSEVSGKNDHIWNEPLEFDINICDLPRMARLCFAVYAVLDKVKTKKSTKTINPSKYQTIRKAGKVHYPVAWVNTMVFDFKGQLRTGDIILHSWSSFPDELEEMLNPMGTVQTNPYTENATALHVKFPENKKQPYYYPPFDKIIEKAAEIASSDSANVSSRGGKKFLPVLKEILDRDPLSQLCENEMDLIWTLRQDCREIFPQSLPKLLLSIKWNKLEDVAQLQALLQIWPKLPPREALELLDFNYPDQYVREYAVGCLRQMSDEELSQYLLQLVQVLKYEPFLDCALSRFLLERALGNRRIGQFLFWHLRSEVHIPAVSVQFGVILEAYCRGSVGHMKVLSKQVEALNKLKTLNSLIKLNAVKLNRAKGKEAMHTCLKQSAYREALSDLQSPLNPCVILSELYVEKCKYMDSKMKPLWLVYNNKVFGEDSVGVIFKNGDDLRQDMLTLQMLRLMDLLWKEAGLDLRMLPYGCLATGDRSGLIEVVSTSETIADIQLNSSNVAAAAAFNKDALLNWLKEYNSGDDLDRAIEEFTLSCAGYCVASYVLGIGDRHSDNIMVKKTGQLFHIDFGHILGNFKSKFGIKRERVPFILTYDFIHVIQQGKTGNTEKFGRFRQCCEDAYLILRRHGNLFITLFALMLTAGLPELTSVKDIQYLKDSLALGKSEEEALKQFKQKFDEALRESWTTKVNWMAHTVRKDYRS
Target sequence in this assay (Q63787 whole entry partner): as the sequence (Q63787 whole entry partner) above
The target in data set [5] is T3, PI 3-kinase delta (Homo sapiens, UniProt O00329). The data set can be described thus: Cellular assay J1, p-Akt (S473) in Rat-1 cells, Surefire format. In kind it is cell-based. To be noted: non-asterisked data: version J1 (Surefire format), Rat-1 cells; read-out: Assay J PI3Kδ IC50.
Target sequence in this assay (O00329 whole entry): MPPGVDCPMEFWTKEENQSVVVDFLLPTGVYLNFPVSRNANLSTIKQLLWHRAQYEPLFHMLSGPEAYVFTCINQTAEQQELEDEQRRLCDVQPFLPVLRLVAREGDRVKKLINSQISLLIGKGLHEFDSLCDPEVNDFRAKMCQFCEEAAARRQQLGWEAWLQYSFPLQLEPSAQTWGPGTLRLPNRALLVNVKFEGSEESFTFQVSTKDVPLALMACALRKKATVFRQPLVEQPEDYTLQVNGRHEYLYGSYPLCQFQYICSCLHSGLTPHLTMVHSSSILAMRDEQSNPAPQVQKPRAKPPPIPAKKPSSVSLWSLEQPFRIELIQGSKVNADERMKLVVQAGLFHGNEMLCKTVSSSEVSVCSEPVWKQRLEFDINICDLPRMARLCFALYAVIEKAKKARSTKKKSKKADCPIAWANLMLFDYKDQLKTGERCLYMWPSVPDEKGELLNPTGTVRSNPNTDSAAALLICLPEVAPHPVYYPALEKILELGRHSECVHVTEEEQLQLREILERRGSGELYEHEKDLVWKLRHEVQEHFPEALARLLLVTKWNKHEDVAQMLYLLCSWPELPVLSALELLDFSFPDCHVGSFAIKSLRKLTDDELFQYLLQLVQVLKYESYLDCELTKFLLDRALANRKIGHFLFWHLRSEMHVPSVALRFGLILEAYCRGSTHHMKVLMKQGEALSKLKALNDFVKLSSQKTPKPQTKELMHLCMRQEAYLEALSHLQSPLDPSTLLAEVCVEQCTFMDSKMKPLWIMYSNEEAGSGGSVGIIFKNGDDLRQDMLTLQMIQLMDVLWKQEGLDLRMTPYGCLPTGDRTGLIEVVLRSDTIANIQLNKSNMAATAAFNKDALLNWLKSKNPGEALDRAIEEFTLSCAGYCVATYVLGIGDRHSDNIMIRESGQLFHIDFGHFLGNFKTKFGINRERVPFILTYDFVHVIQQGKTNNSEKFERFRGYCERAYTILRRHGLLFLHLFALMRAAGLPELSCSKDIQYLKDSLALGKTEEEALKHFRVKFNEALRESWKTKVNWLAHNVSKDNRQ
Target sequence in this assay (Q63787 whole entry partner): as the sequence (Q63787 whole entry partner) above
In data set [6] the target is T3, PI 3-kinase delta. Description: TR-FRET Adapta assay, assay F. To be noted: read-out: Assay F PI3Kδ IC50.
Target sequence in this assay (O00329 whole entry): as the sequence (O00329 whole entry) above
Target sequence in this assay (P27986 461-568 partner): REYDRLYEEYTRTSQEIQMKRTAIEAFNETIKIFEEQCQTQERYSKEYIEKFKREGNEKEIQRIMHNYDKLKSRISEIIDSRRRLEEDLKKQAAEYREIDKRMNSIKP
Data set [7] is described as follows: Microsomal clearance assay (M). Conditions: intrinsic clearance in rat liver microsomes.
Description: The experiments were performed in 96-well glass plates at 37° C. on an automated Tecan EVO platform. Test compounds at a concentration of 10 mM in pure DMSO were diluted 1:1000 in water to 10 μM. […] Reactions were initiated by the addition of 150 μL of a cofactor solution containing 2 mM NADPH.
For a further data set, the target named is mTOR (Homo sapiens, UniProt P42345). The data set can be described thus: Lanthascreen kinase binding assay, assay G. To be noted: read-out: Assay G mTOR IC50.

Structures are written as SMILES.

Description for mTOR: Lanthascreen™ Kinase Binding Assay for mTOR (G)
Binding of an inhibitor to the kinase competes for binding with the tracer, resulting in a loss of FRET.
50 nL of compound dilutions were dispensed onto white 384-well small volume polystyrene plate.

In the case of `Cc1ncc(S(=O)(=O)NCC(C)(C)O)cc1-c1cnc(N)c(-n2cncn2)n1` [Example 53, 5-(5-Amino-6-(1H-1,2,4-triazol-1-yl)pyrazin-2-yl)-N-(2-hydroxy-2-methylpropyl)-6-methylpyridine-3-sulfonamide], the 50% inhibitory concentration (IC50) on PI 3-kinase alpha [1] was 1700 nM; at PI 3-kinase beta [2], 7000 nM; at Vps34 it was more than 10000 nM; at PI 4-kinase beta it was more than 10000 nM; on PI 3-kinase gamma, 690 nM; on PI 3-kinase alpha [3], more than 10000 nM. Besides, the IC50 was more than 10000 nM on PI 3-kinase beta [4], more than 10000 nM at PI 3-kinase delta [5] and 3700 nM at PI 3-kinase delta [6]. For the same compound, the “Assay M RLM CI(int)” value in [7] was found to be 29 µL/min/mg.

In the case of `Cc1ccc(S(=O)(=O)NCC(C)(C)O)cc1-c1cnc(N)c(-c2cn(C)nn2)n1` [Example 81, 3-(5-Amino-6-(1-methyl-1H-1,2,3-triazol-4-yl)pyrazin-2-yl)-N-(2-hydroxy-2-methylpropyl)-4-methylbenzenesulfonamide], the IC50 is 2600 nM on PI 3-kinase alpha [1]; 6300 nM on PI 3-kinase beta [2]; more than 10000 nM at Vps34; 9000 nM on PI 4-kinase beta; 77 nM at PI 3-kinase gamma; more than 10000 nM at mTOR. For the same compound, the IC50 was more than 10000 nM on PI 3-kinase alpha [3], more than 10000 nM at PI 3-kinase beta [4], 4040 nM at PI 3-kinase delta [5] and 2500 nM on PI 3-kinase delta [6]. In addition, the “Assay M RLM CI(int)” value in data set [7] was found to be 29 µL/min/mg.

With `CCn1cc(-c2nc(-c3cc(S(=O)(=O)NCC(C)(C)O)ccc3C)cnc2N)nn1` [Example 83, 3-(5-Amino-6-(1-ethyl-1H-1,2,3-triazol-4-yl)pyrazin-2-yl)-N-(2-hydroxy-2-methylpropyl)-4-methylbenzenesulfonamide], the IC50 on PI 3-kinase alpha [1] is 1900 nM; on PI 3-kinase beta [2], 5200 nM; on Vps34 it was more than 10000 nM; at PI 4-kinase beta, 4300 nM; at PI 3-kinase gamma it was 85 nM; on mTOR it was more than 10000 nM. Moreover, the IC50 at PI 3-kinase alpha [3] is more than 10000 nM; on PI 3-kinase beta [4], 8750 nM; at PI 3-kinase delta [5], 4050 nM; at PI 3-kinase delta [6] it was 700 nM. Moreover, the “Assay M RLM CI(int)” value in data set [7] turned out to be 45 µL/min/mg.

On to `Cc1ccc(S(=O)(=O)NCCC(C)(C)O)cc1-c1cnc(N)c(-c2cnc(C3CC3)s2)n1` [Example 107, 3-(5-Amino-6-(2-cyclopropylthiazol-5-yl)pyrazin-2-yl)-N-(3-hydroxy-3-methylbutyl)-4-methylbenzenesulfonamide], for which the 50% inhibitory concentration (IC50) came to 80 nM on PI 3-kinase alpha [1]; 2090 nM at PI 3-kinase beta [2]; 3100 nM on Vps34; 940 nM on PI 4-kinase beta; 6 nM on PI 3-kinase gamma; 1390 nM on mTOR. The IC50 at PI 3-kinase alpha [3] was 790 nM; on PI 3-kinase beta [4] it was 1290 nM; at PI 3-kinase delta [5], 960 nM; at PI 3-kinase delta [6], 60 nM. Moreover, in [7], the “Assay M RLM CI(int)” value is 119 µL/min/mg.

Consider `COc1nc(-c2nc(-c3cc(S(=O)(=O)NCCC(C)(C)O)ccc3C)cnc2N)cs1` [Example 110, 3-(5-Amino-6-(2-methoxythiazol-4-yl)pyrazin-2-yl)-N-(3-hydroxy-3-methylbutyl)-4-methylbenzenesulfonamide], for which the 50% inhibitory concentration (IC50) on PI 3-kinase alpha [1] was 90 nM; at PI 3-kinase beta [2] it was 520 nM; on Vps34, more than 10000 nM; at PI 4-kinase beta it was more than 10000 nM; at PI 3-kinase gamma, 10 nM; at mTOR, more than 10000 nM. In addition, the IC50 on PI 3-kinase alpha [3] came out at 480 nM; on PI 3-kinase beta [4] it was 1730 nM; at PI 3-kinase delta [5] it was 690 nM; at PI 3-kinase delta [6], 320 nM. In addition, in data set [7], the “Assay M RLM CI(int)” value came out at 254 µL/min/mg.

Regarding `Cc1ccc(S(=O)(=O)NOC(C)C)cc1-c1cnc(N)c(-n2cncn2)n1` [Example 112.3, 3-(5-Amino-6-(1H-1,2,4-triazol-1-yl)pyrazin-2-yl)-N-isopropoxy-4-methylbenzenesulfonamide], the concentration for half-maximal inhibition (IC50) is 360 nM on PI 3-kinase alpha [1]; 1100 nM on PI 3-kinase beta [2]; more than 10000 nM at Vps34; 1200 nM at PI 4-kinase beta; 1360 nM on mTOR; 400 nM on PI 3-kinase alpha [3]. Also, the IC50 at PI 3-kinase beta [4] is more than 3000 nM; on PI 3-kinase delta [5], 860 nM; on PI 3-kinase delta [6], 260 nM. Further, the “Assay M RLM CI(int)” value in data set [7] turned out to be 123 µL/min/mg.

As for `Cc1ccc(S(=O)(=O)NCCC(C)(C)O)cc1-c1cnc(N)c(-c2cnn(CCC(C)C)c2)n1` [Example 119.26], the half-maximal inhibitory concentration (IC50) is 250 nM at PI 3-kinase alpha [1]; 3900 nM on PI 3-kinase beta [2]; more than 9100 nM at Vps34; 1790 nM at PI 4-kinase beta; 37 nM at PI 3-kinase gamma; 5870 nM at mTOR. The IC50 at PI 3-kinase alpha [3] is 700 nM; at PI 3-kinase beta [4], 1800 nM; on PI 3-kinase delta [5], 510 nM; on PI 3-kinase delta [6] it was 40 nM. The “Assay M RLM CI(int)” value in data set [7] is 380 µL/min/mg.

Take `Cc1ccc(S(=O)(=O)NCCC(C)(C)O)cc1-c1cnc(N)c(-c2cnn(CC(C)C)c2)n1` [Example 119.32]: the half-inhibitory concentration (IC50) was 260 nM at PI 3-kinase alpha [1]; 3220 nM on PI 3-kinase beta [2]; more than 9100 nM at Vps34; 2670 nM at PI 4-kinase beta; 11 nM on PI 3-kinase gamma; 6040 nM at mTOR. In addition, the IC50 was found to be 1680 nM at PI 3-kinase alpha [3], 6040 nM at PI 3-kinase beta [4], 790 nM on PI 3-kinase delta [5] and 200 nM at PI 3-kinase delta [6]. Also, the “Assay M RLM CI(int)” value in data set [7] came out at 191 µL/min/mg.

For `Cc1cc(-c2nc(-c3cc(S(=O)(=O)NCCCCCO)ccc3C)cnc2N)ccn1` [Example 129.3, 3-(5-amino-6-(2-methylpyridin-4-yl)pyrazin-2-yl)-N-(5-hydroxypentyl)-4-methylbenzenesulfonamide], the IC50 on PI 3-kinase alpha [1] is 490 nM; on PI 3-kinase beta [2] it was 7100 nM; at Vps34 it was more than 9100 nM; on PI 4-kinase beta, more than 9100 nM; on PI 3-kinase gamma, 16 nM; on mTOR it was more than 9100 nM. In addition, the half-maximal inhibitory concentration (IC50) was 7600 nM at PI 3-kinase alpha [3], more than 10000 nM on PI 3-kinase beta [4], 6840 nM on PI 3-kinase delta [5] and 340 nM on PI 3-kinase delta [6]. For the same compound, in data set [7], the “Assay M RLM CI(int)” value was 139 µL/min/mg.

Take `Cc1cc(-c2nc(-c3cc(S(=O)(=O)NC4CCNC(=O)C4)ccc3C)cnc2N)ccn1` (stereo not drawn) [Example 134, 3-(5-Amino-6-(2-methylpyridin-4-yl)pyrazin-2-yl)-4-methyl-N-(2-oxopiperidin-4-yl)benzenesulfonamide]: the IC50 is 400 nM at PI 3-kinase alpha [1]; 4330 nM on PI 3-kinase beta [2]; more than 9100 nM on Vps34; 7170 nM on PI 4-kinase beta; 55 nM on PI 3-kinase gamma; more than 9100 nM at mTOR. In addition, the IC50 at PI 3-kinase alpha [3] was more than 10000 nM; on PI 3-kinase beta [4], more than 10000 nM; at PI 3-kinase delta [5], more than 10000 nM; at PI 3-kinase delta [6], 350 nM.

Consider `Cc1ccc(S(=O)(=O)NCC(C)(C)O)cc1-c1cnc(N)c(-c2cnn(CCN(C)C)c2)n1` [Example 142, 3-(5-Amino-6-(1-(2-(dimethylamino)ethyl)-1H-pyrazol-4-yl)pyrazin-2-yl)-N-(2-hydroxy-2-methylpropyl)-4-methylbenzenesulfonamide], for which the half-maximal inhibitory concentration (IC50) is 1000 nM on PI 3-kinase alpha [1]; 6000 nM on PI 3-kinase beta [2]; more than 10000 nM at Vps34; more than 10000 nM on PI 4-kinase beta; 270 nM at PI 3-kinase gamma; more than 10000 nM on PI 3-kinase alpha [3]. In addition, the half-inhibitory concentration (IC50) at PI 3-kinase beta [4] is more than 10000 nM; on PI 3-kinase delta [5], more than 10000 nM; on PI 3-kinase delta [6], 1000 nM. Further, the “Assay M RLM CI(int)” value in [7] was 34 µL/min/mg.
